The source of these data is patent US20110251220A1, “Pharmaceutical compositions comprising gamma secretase modulators” (priority 2008, published 2011).

Common to all, as to assay type: cell-based, human
Assay [1] deals with U266 cells. Description: Cell cycle analysis (propidium iodide), U266. The procedure: (§1) The compound according to example 1, hereinafter referred to as GSI15, (compound RH02015SC, Maybridge, Acros Organics, Geel, Belgium) was freshly dissolved as 26 mM stock solution in Dimethylsulfoxide (DMSO). Multiple myeloma therapeutics used were melphalan (marketed as Alkeran®, GlaxoSmithKline, Munich, Germany) and bortezomib (marketed as Velcade®, Janssen-Cilag, Neuss, Germany). Melphalan was freshly dissolved at 10 mg/ml in 0.9% NaCl-solution. Bortezomib was freshly dissolved at 100 ng/ml in 0.9% NaCl solution. Gamma Secretase Inhibitor (GSI) treatment for apoptosis assessment by AnnexinV/PI staining, cell cycle analysis and coculture experiments was performed in 6-well plates. GSI15 stock solution was added directly to the cell suspension. GSI treatment for assaying proliferation was performed in 96-well plates. […]
(§2) For cell cycle analysis 2×10^5 cells were spun down, medium was aspirated and cells washed with PBS. […] After 10 minutes incubation in the dark at room temperature, cells were analyzed by flow cytometry. The amount of apoptotic cells was determined by AnnexinV/propidium iodide staining using Human AnnexinV-FITC Kit (Bender Medsystems, Vienna, Austria), according to manufacturer's protocol. […] Cells were then spun down again, resuspended in binding buffer containing PI and analyzed by flow cytometry.

In assay [2] the test system is U266 cells. Description: Apoptosis by AnnexinV-FITC/PI staining, U266. The procedure: as §1, §2
Assay [3] relates to U266 cells. Description: PARP cleavage by Western blotting, U266. The procedure: Whole cell extracts were prepared and quantified as described in Jundt F, Anagnostopoulos I, Forster R, Mathas S, Stein H, Dorken B. Activated Notch1 signaling promotes tumor cell proliferation and survival in Hodgkin and anaplastic large cell lymphoma. Blood. 2002; 99:3398-3403. Proteins (30 μg) were resolved by sodium dodecyl sulfate-polyacrylamide gel electrophoresis (SDS-PAGE) and transferred to nitrocellulose membranes. Protein loading was normalized by Ponceau red staining. Membranes were incubated with monoclonal mouse anti-Notch1 antibody (no. 552466; BD Biosciences, Heidelberg, Germany), anti-Jagged1 antibody (sc-8303; Santa Cruz Biotechnology), polyclonal rabbit anti-Delta antiboday (Santa Cruz Biotechnology), polyclonal rabbit anti-cleaved PARP (Asp214) antibody (Cell Signaling Technologies, Frankfurt a.M., Germany) or mouse monoclonal anti-tubulin antibody (Sigma, Deisenhofen, Germany).
Secondary antibodies were goat anti-mouse (Promega, Mannheim, Germany), goat anti-rat (Dianova, Hamburg, Germany), and goat anti-rabbit (Santa Cruz Biotechnology) horseradish peroxidase (HRP)-conjugated antibodies. Detection was done using Pico chemi-luminescence reagent (Perbio Science, Bonn, Germany).

In the next assay the test system is OCL. Description: PARP cleavage in osteoclasts (OCL), mono- and coculture. The procedure: Human MM cell lines used were as follows: NCI-H929, OPM-2, LP-1, RPMI-8226, U266 (DSMZ, Braunschweig, Germany). Cell lines were cultured in RPMI 1640 medium (Biochrom, Berlin, Germany) supplemented with 10% heat-inactivated fetal calf serum (FCS, Gibco, Karlsruhe, Germany), 1 mM sodium pyruvate and 100 units/ml penicillin and 100 μg/ml streptomycin (Gibco). Human osteoclasts were obtained as described in the reference of Zavrski I, Krebbel H, Wildemann B, et al. Proteasome inhibitors abrogate osteoclast differentiation and osteoclast function. Biochem Biophys Res Commun. 2005; 333:200-205. Briefly, peripheral blood mononuclear cells (PBMC) were isolated from whole blood of healthy volunteers, using a Ficoll-Hypaque density gradient. The adherent fraction of the isolated mononuclear cells was cultured for 21 days in MEM medium (Sigma-Aldrich Chemie, Taufkirchen, Germany) supplemented with 10% FCS, 100 U/ml penicillin, 100 μg/ml streptomycin, 50 ng/ml M-CSF, and 25 ng/ml RANKL (osteoclastogenic medium), before coculture experiments and treatment with the inventive compounds started. […]
Whole cell extracts were prepared and quantified as described in Jundt F, Anagnostopoulos I, Forster R, Mathas S, Stein H, Dorken B. Activated Notch1 signaling promotes tumor cell proliferation and survival in Hodgkin and anaplastic large cell lymphoma. […]

For the compound `CC(C)c1ccc(S(=O)(=O)Nc2cccnc2Oc2ccc(Cl)cc2)cc1` [Example 1, N-(2-(4-chlorophenoxy)pyridin-3-yl)-4-isopropylbenzenesulfonamide], the “sub-G1 fraction / cell cycle” value in the assay with U266 cells [1] was “no change was detected”. Further, in the assay on U266 cells [2], the AnnexinV-FITC/PI staining entry is on record as “remained unaffected”. Besides, the “PARP cleavage product (apoptosis marker)” value with U266 cells [3] is recorded as “not in the U266 cell line”. Further, the PARP cleavage entry is listed as “did not induce PARP cleavage” in the assay with OCL (OCL alone) and “it was induced” in the assay on OCL (OCL cocultured with OPM-2 cells, high doses of GSI15).
